In the assay the test system is P388. Briefly: Cytotoxicity against mouse P388 cells. It counts as functional. Conditions: read-out: ED50 (the source's name).

In brackets after ≈: the same amount, converted by molar mass. Peptide text beside a SMILES is read from it.

With `CC[C@H](C)[C@@H]1NC(=O)[C@@H]2CCCN2C(=O)[C@H]([C@@H](C)CC)NC(=O)[C@@H]2CCCN2C(=O)[C@H](Cc2ccc(O)cc2)NC(=O)[C@@H]2CCCN2C(=O)[C@H](Cc2ccccc2)NC1=O` [PHAKELLISTATIN 1] (cyclo(FPYPIPI)), the EC50 is 7.5 µg/mL (≈ 9.06 µM).

The values are drawn from ChEMBL document CHEMBL1147342, “Isolation and structure of the marine sponge cell growth inhibitory cyclic peptide phakellistatin 1” (1993).
